Patent US10906910B2, “Substituted bicyclic pyrimidine compounds with tubulin and multiple receptor inhibition” (Duquesne University of the Holy Spirit, priority 2014, dated 2021)

Legend:
SK-MEL-28 = assay: NCI 60 panel, Melanoma SK-MEL-28; assay type: cell-based; settings: Homo sapiens, read-out: Tumor cell inhibitory activity (NCI) GI50
MDA-MB-468 = assay: NCI 60 panel, Breast Cancer MDA-MB-468; assay type: cell-based; settings: Homo sapiens, read-out: Tumor cell inhibitory activity (NCI) GI50
HCT-116 = assay: NCI 60 panel, Colon Cancer HCT-116; assay type: cell-based; settings: Homo sapiens, read-out: Tumor cell inhibitory activity (NCI) GI50
MCF7 = assay: NCI 60 panel, Breast Cancer MCF7; assay type: cell-based; settings: Homo sapiens, read-out: Tumor cell inhibitory activity (NCI) GI50
OVCAR-8 = assay: NCI 60 panel, Ovarian cancer OVCAR-8; assay type: cell-based; settings: Homo sapiens, read-out: Tumor cell inhibitory activity (NCI) GI50
NCI-H226 = assay: NCI 60 panel, NSCLC NCI-H226; assay type: cell-based; settings: Homo sapiens, read-out: Tumor cell inhibitory activity (NCI) GI50
MDA-MB-435 = assay: NCI 60 panel, Melanoma MDA-MB-435; assay type: cell-based; settings: Homo sapiens, read-out: Tumor cell inhibitory activity (NCI) GI50
DU-145 = assay: NCI 60 panel, Prostate Cancer DU-145; assay type: cell-based; settings: Homo sapiens, read-out: Tumor cell inhibitory activity (NCI) GI50
[1] = test system: NCI 60 tumor cell line panel; assay: NCI 60 tumor cell line panel, overall; assay type: cell-based
SK-OV-3 = assay: NCI 60 panel, Ovarian cancer SK-OV-3; assay type: cell-based; settings: Homo sapiens, read-out: Tumor cell inhibitory activity (NCI) GI50
CAKI-1 = assay: NCI 60 panel, Renal Cancer CAKI-1; assay type: cell-based; settings: Homo sapiens, read-out: Tumor cell inhibitory activity (NCI) GI50
PDGFRβ = PDGFRβ (Homo sapiens, UniProt P09619); assay: PDGFRβ kinase inhibition, whole-cell assay; assay type: cell-based
Chain of PDGFRβ (P09619 33-1106, species assumed): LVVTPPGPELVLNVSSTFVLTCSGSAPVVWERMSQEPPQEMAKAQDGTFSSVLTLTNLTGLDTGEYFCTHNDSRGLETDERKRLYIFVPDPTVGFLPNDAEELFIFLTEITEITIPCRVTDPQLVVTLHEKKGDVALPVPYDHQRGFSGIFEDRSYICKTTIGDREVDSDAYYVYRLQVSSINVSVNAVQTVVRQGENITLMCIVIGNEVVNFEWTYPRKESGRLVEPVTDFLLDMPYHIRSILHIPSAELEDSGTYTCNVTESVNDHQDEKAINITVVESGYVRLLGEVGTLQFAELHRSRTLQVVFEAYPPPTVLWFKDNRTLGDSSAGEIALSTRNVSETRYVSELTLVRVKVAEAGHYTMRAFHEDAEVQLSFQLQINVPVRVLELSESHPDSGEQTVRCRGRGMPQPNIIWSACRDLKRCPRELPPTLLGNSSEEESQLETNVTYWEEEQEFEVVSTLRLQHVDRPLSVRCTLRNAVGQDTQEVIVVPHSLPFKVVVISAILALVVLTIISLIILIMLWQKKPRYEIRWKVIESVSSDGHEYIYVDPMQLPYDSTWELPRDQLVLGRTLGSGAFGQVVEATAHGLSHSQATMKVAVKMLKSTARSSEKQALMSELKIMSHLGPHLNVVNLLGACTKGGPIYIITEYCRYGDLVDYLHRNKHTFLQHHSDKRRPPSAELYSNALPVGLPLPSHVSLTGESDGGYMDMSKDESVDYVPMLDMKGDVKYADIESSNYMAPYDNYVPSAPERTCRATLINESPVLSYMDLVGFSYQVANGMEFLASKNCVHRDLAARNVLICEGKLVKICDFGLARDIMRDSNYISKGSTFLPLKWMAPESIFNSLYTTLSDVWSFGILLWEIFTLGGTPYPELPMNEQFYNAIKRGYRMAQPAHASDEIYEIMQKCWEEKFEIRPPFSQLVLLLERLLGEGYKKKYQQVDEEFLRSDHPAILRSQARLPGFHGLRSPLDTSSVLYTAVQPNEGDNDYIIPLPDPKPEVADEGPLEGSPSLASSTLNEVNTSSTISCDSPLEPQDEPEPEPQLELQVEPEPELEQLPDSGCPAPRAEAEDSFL

HOP-92 = assay: NCI 60 panel, NSCLC HOP-92; assay type: cell-based; settings: Homo sapiens, read-out: Tumor cell inhibitory activity (NCI) GI50
RXF 393 = assay: NCI 60 panel, Renal Cancer RXF 393; assay type: cell-based; settings: Homo sapiens, read-out: Tumor cell inhibitory activity (NCI) GI50
SK-MEL-5 = assay: NCI 60 panel, Melanoma SK-MEL-5; assay type: cell-based; settings: Homo sapiens, read-out: Tumor cell inhibitory activity (NCI) GI50
[2] = test system: blood vessel formation in the chicken chorioallantoic membrane (CAM); assay: chicken chorioallantoic membrane (CAM) antiangiogenic activity assay; assay type: in vivo; settings: Gallus gallus
MOLT-4 = assay: NCI 60 panel, Leukemia MOLT-4; assay type: cell-based; settings: Homo sapiens, read-out: Tumor cell inhibitory activity (NCI) GI50
HOP-62 = assay: NCI 60 panel, NSCLC HOP-62; assay type: cell-based; settings: Homo sapiens, read-out: Tumor cell inhibitory activity (NCI) GI50
NCI-H460 = assay: NCI 60 panel, NSCLC NCI-H460; assay type: cell-based; settings: Homo sapiens, read-out: Tumor cell inhibitory activity (NCI) GI50
PC-3 = assay: NCI 60 panel, Prostate Cancer PC-3; assay type: cell-based; settings: Homo sapiens, read-out: Tumor cell inhibitory activity (NCI) GI50
SNB-19 = assay: NCI 60 panel, CNS Cancer SNB-19; assay type: cell-based; settings: Homo sapiens, read-out: Tumor cell inhibitory activity (NCI) GI50
SNB-75 = assay: NCI 60 panel, CNS Cancer SNB-75; assay type: cell-based; settings: Homo sapiens, read-out: Tumor cell inhibitory activity (NCI) GI50
NCI-H522 = assay: NCI 60 panel, NSCLC NCI-H522; assay type: cell-based; settings: Homo sapiens, read-out: Tumor cell inhibitory activity (NCI) GI50
bovine brain tubulin = assay: inhibition of tubulin assembly; assay type: biochemical
ACHN = assay: NCI 60 panel, Renal Cancer ACHN; assay type: cell-based; settings: Homo sapiens, read-out: Tumor cell inhibitory activity (NCI) GI50
NCI-H322M = assay: NCI 60 panel, NSCLC NCI-H322M; assay type: cell-based; settings: Homo sapiens, read-out: Tumor cell inhibitory activity (NCI) GI50
LOX IMVI = assay: NCI 60 panel, Melanoma LOX IMVI; assay type: cell-based; settings: Homo sapiens, read-out: Tumor cell inhibitory activity (NCI) GI50
HT29 = assay: NCI 60 panel, Colon Cancer HT29; assay type: cell-based; settings: Homo sapiens, HT-29, read-out: Tumor cell inhibitory activity (NCI) GI50
SW-620 = assay: NCI 60 panel, Colon Cancer SW-620; assay type: cell-based; settings: Homo sapiens, read-out: Tumor cell inhibitory activity (NCI) GI50
A498 = assay: NCI 60 panel, Renal Cancer A498; assay type: cell-based; settings: Homo sapiens, read-out: Tumor cell inhibitory activity (NCI) GI50
SR = assay: NCI 60 panel, Leukemia SR; assay type: cell-based; settings: Homo sapiens, read-out: Tumor cell inhibitory activity (NCI) GI50
MDA-MB-231/ATCC = assay: NCI 60 panel, Breast Cancer MDA-MB-231/ATCC; assay type: cell-based; settings: Homo sapiens, read-out: Tumor cell inhibitory activity (NCI) GI50
VEGFR2 = VEGFR2 (Homo sapiens, UniProt P35968); assay: VEGFR2 kinase inhibition, whole-cell assay; assay type: cell-based; settings: read-out: kinase inhibition IC50 [whole-cell assays] VEGFR2
Chain of VEGFR2 (P35968 20-1356, species assumed): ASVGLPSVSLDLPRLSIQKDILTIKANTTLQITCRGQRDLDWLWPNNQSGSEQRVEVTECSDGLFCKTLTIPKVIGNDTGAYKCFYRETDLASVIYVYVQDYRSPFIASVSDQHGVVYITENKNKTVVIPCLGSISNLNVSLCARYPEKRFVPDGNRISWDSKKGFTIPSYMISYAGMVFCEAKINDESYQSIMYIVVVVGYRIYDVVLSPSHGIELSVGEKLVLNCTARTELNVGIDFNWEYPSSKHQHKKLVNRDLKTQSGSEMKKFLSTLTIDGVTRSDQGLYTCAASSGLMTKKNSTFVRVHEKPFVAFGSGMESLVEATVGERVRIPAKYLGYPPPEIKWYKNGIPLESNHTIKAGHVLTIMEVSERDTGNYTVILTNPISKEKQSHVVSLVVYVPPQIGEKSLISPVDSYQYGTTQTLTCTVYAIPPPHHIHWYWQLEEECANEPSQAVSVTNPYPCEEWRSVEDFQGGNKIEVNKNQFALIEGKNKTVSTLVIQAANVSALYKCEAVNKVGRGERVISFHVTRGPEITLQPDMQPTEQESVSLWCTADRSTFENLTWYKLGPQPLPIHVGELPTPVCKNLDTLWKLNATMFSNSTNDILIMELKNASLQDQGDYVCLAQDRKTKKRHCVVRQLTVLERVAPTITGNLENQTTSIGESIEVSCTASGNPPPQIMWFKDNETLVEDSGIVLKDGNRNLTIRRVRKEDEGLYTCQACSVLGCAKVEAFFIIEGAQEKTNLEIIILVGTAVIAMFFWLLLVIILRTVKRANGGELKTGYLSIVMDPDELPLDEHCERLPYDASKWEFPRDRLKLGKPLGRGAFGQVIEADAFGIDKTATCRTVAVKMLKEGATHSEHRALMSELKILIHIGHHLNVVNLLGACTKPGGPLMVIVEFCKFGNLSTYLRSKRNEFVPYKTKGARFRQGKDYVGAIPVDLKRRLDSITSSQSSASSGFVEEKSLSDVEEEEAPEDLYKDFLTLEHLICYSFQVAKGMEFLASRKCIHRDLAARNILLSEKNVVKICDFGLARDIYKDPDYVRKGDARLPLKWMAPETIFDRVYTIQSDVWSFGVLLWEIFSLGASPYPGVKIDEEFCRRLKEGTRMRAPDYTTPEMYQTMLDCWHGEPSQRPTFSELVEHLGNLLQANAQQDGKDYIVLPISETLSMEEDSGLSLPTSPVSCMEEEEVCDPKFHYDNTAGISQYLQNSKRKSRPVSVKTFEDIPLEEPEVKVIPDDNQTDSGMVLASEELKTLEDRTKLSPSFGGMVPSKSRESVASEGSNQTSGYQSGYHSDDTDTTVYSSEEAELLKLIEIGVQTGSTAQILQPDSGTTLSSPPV

UO-31 = assay: NCI 60 panel, Renal Cancer UO-31; assay type: cell-based; settings: Homo sapiens, read-out: Tumor cell inhibitory activity (NCI) GI50
786-0 = assay: NCI 60 panel, Renal Cancer 786-0; assay type: cell-based; settings: Homo sapiens, read-out: Tumor cell inhibitory activity (NCI) GI50
K-562 = assay: NCI 60 panel, Leukemia K-562; assay type: cell-based; settings: Homo sapiens, K562, read-out: Tumor cell inhibitory activity (NCI) GI50
IGROVI = assay: NCI 60 panel, Ovarian cancer IGROVI; assay type: cell-based; settings: read-out: Tumor cell inhibitory activity (NCI) GI50
SF-295 = assay: NCI 60 panel, CNS Cancer SF-295; assay type: cell-based; settings: Homo sapiens, read-out: Tumor cell inhibitory activity (NCI) GI50
OVCAR-5 = assay: NCI 60 panel, Ovarian cancer OVCAR-5; assay type: cell-based; settings: Homo sapiens, read-out: Tumor cell inhibitory activity (NCI) GI50
HL-60(TB) = assay: NCI 60 panel, Leukemia HL-60(TB); assay type: cell-based; settings: Homo sapiens, read-out: Tumor cell inhibitory activity (NCI) GI50
CCRF-CEM = assay: NCI 60 panel, Leukemia CCRF-CEM; assay type: cell-based; settings: Homo sapiens, read-out: Tumor cell inhibitory activity (NCI) GI50
UACC-62 = assay: NCI 60 panel, Melanoma UACC-62; assay type: cell-based; settings: Homo sapiens, read-out: Tumor cell inhibitory activity (NCI) GI50
RPMI-8226 = assay: NCI 60 panel, Leukemia RPMI-8226; assay type: cell-based; settings: Homo sapiens, read-out: Tumor cell inhibitory activity (NCI) GI50
[3] = test system: tubulin (colchicine site); assay: inhibition of [3H]colchicine binding to tubulin; design: species or system bovine
HCC-2998 = assay: NCI 60 panel, Colon Cancer HCC-2998; assay type: cell-based; settings: Homo sapiens, read-out: Tumor cell inhibitory activity (NCI) GI50
KM12 = assay: NCI 60 panel, Colon Cancer KM12; assay type: cell-based; settings: Homo sapiens, read-out: Tumor cell inhibitory activity (NCI) GI50
A549/ATCC = assay: NCI 60 panel, NSCLC A549/ATCC; assay type: cell-based; settings: Homo sapiens, read-out: Tumor cell inhibitory activity (NCI) GI50
BT-549 = assay: NCI 60 panel, Breast Cancer BT-549; assay type: cell-based; settings: Homo sapiens, read-out: Tumor cell inhibitory activity (NCI) GI50
OVCAR-3 = assay: NCI 60 panel, Ovarian cancer OVCAR-3; assay type: cell-based; settings: Homo sapiens, read-out: Tumor cell inhibitory activity (NCI) GI50
EGFR = EGFR (Homo sapiens, UniProt P00533); assay: EGFR kinase inhibition, whole-cell assay; assay type: cell-based; settings: read-out: kinase inhibition IC50 [whole-cell assays] EGFR
Chain of EGFR (P00533 25-1210, species assumed): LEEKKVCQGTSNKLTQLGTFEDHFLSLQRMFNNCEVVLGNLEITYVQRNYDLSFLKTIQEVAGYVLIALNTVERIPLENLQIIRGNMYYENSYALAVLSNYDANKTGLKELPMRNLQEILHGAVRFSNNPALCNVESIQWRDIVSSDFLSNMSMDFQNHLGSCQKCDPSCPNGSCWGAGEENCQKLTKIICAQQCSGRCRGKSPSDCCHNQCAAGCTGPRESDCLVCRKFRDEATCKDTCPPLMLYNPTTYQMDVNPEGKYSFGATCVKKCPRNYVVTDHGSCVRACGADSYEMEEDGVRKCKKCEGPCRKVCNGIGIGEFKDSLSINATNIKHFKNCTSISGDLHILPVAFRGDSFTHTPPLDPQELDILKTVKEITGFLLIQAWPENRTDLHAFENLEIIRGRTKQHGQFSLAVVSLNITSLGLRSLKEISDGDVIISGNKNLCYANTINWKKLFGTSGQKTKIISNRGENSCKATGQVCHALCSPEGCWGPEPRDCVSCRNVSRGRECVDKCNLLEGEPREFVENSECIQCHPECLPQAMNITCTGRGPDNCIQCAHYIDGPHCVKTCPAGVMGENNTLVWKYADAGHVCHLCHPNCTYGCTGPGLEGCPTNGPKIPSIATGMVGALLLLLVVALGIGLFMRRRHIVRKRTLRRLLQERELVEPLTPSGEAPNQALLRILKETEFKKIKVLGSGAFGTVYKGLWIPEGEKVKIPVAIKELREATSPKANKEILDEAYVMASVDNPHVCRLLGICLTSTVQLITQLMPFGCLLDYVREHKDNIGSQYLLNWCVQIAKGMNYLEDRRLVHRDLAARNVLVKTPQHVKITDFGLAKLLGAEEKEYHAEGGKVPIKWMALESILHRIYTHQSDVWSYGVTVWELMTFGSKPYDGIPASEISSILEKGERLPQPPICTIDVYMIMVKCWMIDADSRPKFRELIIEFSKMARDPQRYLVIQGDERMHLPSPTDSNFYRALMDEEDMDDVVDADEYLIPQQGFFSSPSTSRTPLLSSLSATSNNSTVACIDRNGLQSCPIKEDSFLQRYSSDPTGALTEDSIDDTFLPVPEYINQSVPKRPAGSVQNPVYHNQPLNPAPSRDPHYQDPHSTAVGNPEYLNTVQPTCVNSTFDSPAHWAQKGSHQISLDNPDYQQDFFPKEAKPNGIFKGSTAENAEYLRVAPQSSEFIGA

MALME-3M = assay: NCI 60 panel, Melanoma MALME-3M; assay type: cell-based; settings: Homo sapiens, read-out: Tumor cell inhibitory activity (NCI) GI50
[4] = compared with combretastatin A-4

COc1ccc(N(C)c2nc(C)nc3c(Cc4ccccc4)cn(C)c23)cc1 [Compound 4, 7-Benzyl-N-(4-methoxyphenyl)-N,2,5-trimethyl-5H-pyrrolo[3,2-d]pyrimidin-4-amine]
GI50 (SK-MEL-28): 48.7 nM | GI50 (MDA-MB-468): 30.1 nM | GI50 (HCT-116): 35 nM | GI50 (MCF7): 33.3 nM | GI50 (OVCAR-8): 49.1 nM | GI50 (NCI-H226): 304 nM | GI50 (MDA-MB-435): 21.4 nM | GI50 (DU-145): 44.4 nM | GI50 across the NCI 60 tumor cell line panel, in words [1]: 2- to 3-digit nanomolar | GI50 (SK-OV-3): 45.4 nM | GI50 (CAKI-1): 56.6 nM | potency against PDGFRβ, in words (PDGFRβ): potencies comparable with DMBI | IC50 (PDGFRβ; whole-cell assay, read-out: kinase inhibition IC50 [whole-cell assays] PDGFRβ): 10.3 nM | GI50 (HOP-92): 47.1 nM | GI50 (RXF 393): 25.4 nM | GI50 (SK-MEL-5): 54.2 nM | IC50 [2]: 2200 ± 400 nM | GI50 (MOLT-4): 50.8 nM | GI50 (HOP-62): 47.8 nM | GI50 (NCI-H460): 38.7 nM | GI50 (PC-3): 49.6 nM | GI50 (SNB-19): 54.7 nM | GI50 (SNB-75): 27.8 nM | GI50 (NCI-H522): 23.9 nM | IC50 (bovine brain tubulin; bovine tubulin): 480 ± 8 nM | inhibition of bovine tubulin assembly, in words (bovine brain tubulin; [4]): effective and potent inhibitors | GI50 (ACHN): 172 nM | GI50 (NCI-H322M): 73.6 nM | GI50 (LOX IMVI): 58.8 nM | GI50 (HT29): 35.1 nM | GI50 (SW-620): 38.4 nM | GI50 (A498): 20.2 nM | GI50 (SR): 33.8 nM | GI50 (MDA-MB-231/ATCC): 63.7 nM | IC50 (VEGFR2): 33 nM | GI50 (UO-31): 209 nM | GI50 (786-0): 93.2 nM | GI50 (K-562): 33.7 nM | GI50 (IGROVI): 95.8 nM | GI50 (SF-295): 30.4 nM | GI50 (OVCAR-5): 269 nM | GI50 (HL-60(TB)): 26.8 nM | GI50 (CCRF-CEM): 33.5 nM | GI50 (UACC-62): 475 nM | GI50 (RPMI-8226): 36.9 nM | inhibition of colchicine binding (1 μM inhibitor) ([3]; 1 μM inhibitor, [3H]colchicine, in % (unit assumed)): 73 ± 3 | inhibition of colchicine binding (5 μM inhibitor) ([3]; 5 μM inhibitor, [3H]colchicine, in % (unit assumed)): 92 ± 0.2 | inhibition of [3H]colchicine binding to tubulin, in words [3, 4]: potent inhibitors | GI50 (HCC-2998): 71.1 nM | GI50 (KM12): 44.5 nM | GI50 (A549/ATCC): 44 nM | GI50 (BT-549): 48.2 nM | GI50 (OVCAR-3): 35.2 nM | IC50 (EGFR): 2.3 ± 0.3 nM | GI50 (MALME-3M): 17.7 nM
